Experimental data from patent publication US20070037756A1, “Compositions and methods for the prevention and treatment of circulatory conditions” (LEADTREK, INC, priority 2005, published 2007).

Legend:
male Sprague-Dawley rats = assay: Animal Model (In Vivo) Assay For Platelet Aggregation Activity using arteriovenous shunts; parameters: species or system rat; settings: oral; for Thrombus weight (newly formed thrombus wet weight): glycerol glucoside derivative 50, 100 mg/kg, aspirin 30 mg/kg x 4 times, 120 min after treatment, shunt 15 minutes, saline 12.9 mg
Procedure: Assays for platelet aggregation activity using arteriovenous shunts were carried out as provided in Umetsu et al., “Effect Of 1-Methyl-2-Mercapto-5(3-Pyridyl)-Imidazole (KC-6141), An Antiaggregation Compound, On Experimental Thrombosis In Rats” Thromb Haemostasis 39:74-83 (1978); and Tang et al., “Anti-Thrombotic Activity Of PDR, A Newly Synthesized L-Arg Derivative, On Three Thrombosis Models In Rats” Thrombosis Research 110:127-133 (2003). Briefly, male Sprague-Dawley rats weighing 320-380 g were used after overnight fasting. The rats were administered orally with: i) a negative control (isotonic saline): ii) a glycerol glucoside derivative (50, 100 mg/kg); and iii) a positive control compound, aspirin (30 mg/kg x 4 times). A 75 min period occurred between each dose to allow the return of homeostasis.
The left jugular vein and the right carotid artery were cannulated with a 4 cm long polyethylene tube (o.d. 1 mm) while being infused with 50 μ/kg i.v. heparin. These catheters were then connected to the ends of a 15 cm long polyethylene tube (o.d. 2 mm) containing a 5 cm long suture silk thread (no. 4). Before the silk thread was placed in the polyethylene tube a pre-treatment wet weight was determined (i.e., a pre-thrombus formation weight). At 120 min after each drug treatment, the blood flow through the shunt was measured for 15 minutes. The silk thread, now containing newly formed thrombi, was gently removed, and a post-treatment wet weight was measured immediately. The newly formed thrombus wet weight was determined by subtracting the pre-treatment silk wet weight from the post-treatment silk wet weight. Thrombus weight for saline was 12.9 mg, for BH-2 (Regaloside C (2)) was 8.8 mg, and for aspirin was 7.1 mg (see FIG. 12).
The rate of thrombosis inhibition was calculated with the equation as follows: % Thrombosis inhibition=(A−A1)/A×100%
Where A was the newly formed thrombus wet weight of the control group (i.e., Saline), and A1 was the newly formed thrombus wet weight of the test derivative or positive control compound (i.e., aspirin).

Rat PRP = assay: Assay of in Vitro Antiplatelet Aggregation (turbidimetry, rat PRP stimulated with ADP and collagen); type: cell-based; settings: maximal aggregation induced by ADP and collagen
Procedure: Platelet aggregation was determined using methods and minor variations as described in Choo et al., Biol. Pharm. Bull. 25(10) 1328-1332 (2002) and Born et al., J. Physiol., 168, 178-195 (1963). For example, blood from rats was collected by cardiac puncture into a plastic flask containing 2.2% sodium citrate (1:9 v/v). Platelet-rich plasma (PRP) was prepared by centrifugation of the blood at 120×g for 15 min and further centrifuged at 850×g for 10 min to prepare platelet poor plasma (PPP). The supernatant was pooled and centrifuged at 600×g for 15 min at room temperature. The platelet pellets were washed with modified Tyrode-HEPES buffer (129 mM NaCl, 2.8 mM KCl, 8.9 mM NaHCO3, 0.8 mM MgCl2, 0.8 mM KH2PO4, 2 mM EGTA, 5.6 mM glucose, 10 mM HEPES, 0.35% BSA, pH 7.4) and centrifuged at 600×g for 15 min. Then platelet pellets were gently resuspended in Tyrode-HEPES buffer and used in the experiments.
Platelet aggregation was measured by turbidimetry using a dual-channel Whole Lumini-lonized Calcium Aggregometer (Chrono-Log Co., Ltd., Havertown, Pa., U.S.A.). Rat PRP ([…]) was incubated at 37° C. for 2 min in the aggregometer with stirring at 1200 rpm and then stimulated with ADP and collagen. […] Changes in light transmission were recorded for 10 min after stimulation with these agents. […]

SMILES	% Thrombosis inhibition (male Sprague-Dawley rats; (A-A1)/A x 100% versus saline control, rat arteriovenous shunt) [%]	Thrombus weight (newly formed thrombus wet weight) (male Sprague-Dawley rats) [mg]	inhibition at 10 µM (Rat PRP) [%]
O=C(/C=C/c1ccc(O)c(O)c1)OC[C@@H](O)CO[C@@H]1O[C@H](CO)[C@@H](O)[C@H](O)[C@H]1O [BH-2, regaloside C]	31.7	8.8	–
CC(=O)Oc1ccccc1C(=O)O [aspirin, acetylsalicylic acid, reference compound]	–	7.1	–
O=C(O)c1cc(O)c2c(c1)C(=O)c1cccc(O)c1C2=O [rhein]	–	–	1.8
